Assay results reported in patent publication US20230165867A1 (CHENGDU BAIYU PHARMACEUTICAL CO., LTD., priority 2020, published 2023).
Read-outs that look alike come from different tables or passages of the source.

Key:
[1] = Metabolic stability in liver microsomes; format: in vitro ADME, human; conditions: human, human liver microsomes; 0.5 µM test substance, 0.5 mg/mL microsomes, NADPH and UDPGA, 37° C.; read-out: T½(min), stability in human liver microsomes
Description: Liver microsomes (purchased from Reed Liver Disease Research (Shanghai) Co., Ltd., product: human liver microsomes (NJT)); NADPH (purchased from Roche, Lot: 40939); UDPGA; the compounds of the present invention (test substances).
• (1) A mixed working solution of testosterone (0.5 µM) and 7-hydroxycoumarin (0.5 µM) was prepared. • (2) A mixed solution of NADPH (1 mM) and UDPGA (1 mM) was prepared, and prewarmed at 37° C. in a water bath shaker before use. • (3) Liver microsomes were thawed and diluted with a buffer. • (4) A preparation of a test substance (0.5 µM) and a solution of liver microsomes (0.5 mg/mL) were added to each well of an incubation plate. • (5) Three experimental groups were set and samples were added. Test group: the test substance was incubated with liver microsomes for 0 min, 30 min, 60 min, and 120 min in the presence of the coenzyme NADPH and UDPGA; Positive control group: testosterone (0.5 µM) and 7-hydroxycoumarin (0.5 µM) were incubated with microsomes for 0 min and 120 min in the presence of the coenzyme NADPH and UDPGA; Negative control group: the test substance was incubated with microsomes for 0 and 120 min without any coenzyme. • (6) All samples were incubated at 37° C., and pre-cooled methanol was added at each termination time (0, 15, 30, 45, 60 min, 120 min) to terminate the reaction, and the time was recorded. • (7) All samples were mixed well and centrifuged at 4000 rpm for 10 min. The supernatant was taken and measured by LC-MS/MS for the amount of the test substance remaining in the samples. Data analysis was carried out as follows: T½=0.693 /k, Clint = (0.693/T½) × (1 /(microsomal protein) × Scaling Factors), Note: k is the slope of the logarithm of the remaining amounts of compound versus time.

[2] = Pharmacokinetic assay in ICR mice (i.v. and p.o.); format: in vivo; conditions: mouse, plasma, male ICR mice; for half-life: read-out: T½ (converted); for bioavailability: po 10 mg/kg vs iv 1 mg/kg
Summary of the method: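 Fasted male ICR mice (18-22 g) dosed at 1 mg/kg i.v. or 10 mg/kg p.o. in 5% DMSO/95% 30% HP-β-CD, three mice per time point. Submandibular plasma sampled up to 24 h, assayed by LC/MS/MS.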

[3] = biological target: T1, TTK kinase (Homo sapiens, UniProt P33981); assay: TTK kinase activity assay (ADP-Glo); format: biochemical; conditions: initial concentration 1000 nM, 1:3, 10 dilutions; read-out: IC50 (nM), TTK kinase inhibiting activity
T1 construct: purchased Invitrogen PV3792
T1 sequence (P33981 1-857): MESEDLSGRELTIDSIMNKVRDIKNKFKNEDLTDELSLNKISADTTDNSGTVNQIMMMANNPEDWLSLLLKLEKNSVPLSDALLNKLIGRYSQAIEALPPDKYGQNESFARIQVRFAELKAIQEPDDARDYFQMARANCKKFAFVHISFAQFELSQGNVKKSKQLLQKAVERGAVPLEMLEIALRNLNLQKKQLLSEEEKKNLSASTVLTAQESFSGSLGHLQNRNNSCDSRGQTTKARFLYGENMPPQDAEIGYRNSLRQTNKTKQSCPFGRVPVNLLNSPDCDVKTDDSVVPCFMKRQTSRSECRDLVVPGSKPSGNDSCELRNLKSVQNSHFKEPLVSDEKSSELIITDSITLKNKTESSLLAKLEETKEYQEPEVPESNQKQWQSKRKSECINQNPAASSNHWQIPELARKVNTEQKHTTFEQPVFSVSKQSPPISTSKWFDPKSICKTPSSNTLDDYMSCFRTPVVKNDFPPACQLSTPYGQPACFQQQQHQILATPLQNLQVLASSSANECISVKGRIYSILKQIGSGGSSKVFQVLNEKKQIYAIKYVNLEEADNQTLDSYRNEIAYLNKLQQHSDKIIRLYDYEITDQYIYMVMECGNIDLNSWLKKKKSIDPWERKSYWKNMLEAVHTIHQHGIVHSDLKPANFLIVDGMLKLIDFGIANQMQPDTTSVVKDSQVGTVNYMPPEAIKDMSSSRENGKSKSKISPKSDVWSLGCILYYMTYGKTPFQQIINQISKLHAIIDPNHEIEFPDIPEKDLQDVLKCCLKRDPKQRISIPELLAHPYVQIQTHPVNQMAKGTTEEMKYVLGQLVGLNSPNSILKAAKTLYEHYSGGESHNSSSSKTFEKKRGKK
Description: TTK kinase was purchased from Invitrogen, Cat.#: PV3792.
• (1) 1×buffer was prepared by diluting 5×buffer into 1×buffer with ddH2O, and adding 0.05 mM DTT. • (2) The compounds of the present invention were prepared at an initial concentration of 1000 nM, and diluted by 1:3 to obtain 10 serial dilutions. • (3) The diluted compounds of the present invention were added to a 384-well plate (purchased from Greiner, product number 784075) by an Echo 550 pipetting workstation, and centrifuged at 1000 g for 1 min. • (3) A 2×TTK enzyme solution was prepared with the 1×buffer. Then, 2.5 µL of the 2× enzyme solution was added to each well, centrifuged at 1000 g for 30 s, and left at room temperature for 10 min. • (4) A 2×MBP substrate/ATP mixture was prepared with the 1×buffer.

[4] = biological target: T2, DNA-PK kinase (Homo sapiens, UniProt P78527); assay: Inhibition assay of DNA-PK kinase (Promega kit, ADP-Glo chemiluminescence); format: biochemical; conditions: 50 µM ATP, 37° C., 60 min; read-out: IC50 (nM), inhibitory activity on DNA-PK kinase
T2 construct: purchased Promega V4107
Summary of the method: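 Compounds incubated with DNA-PK at 37° C for 60 min; reaction stopped with ADP-Glo reagent (40 min, RT), then kinase detection reagent (30 min, RT). ADP formed read by luminescence against an ADP standard curve.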

SMILES | half-life at 0.5 µM [1] [min] | AUC ([2]; iv, 1 mg/kg) [µg·h/mL] | half-life ([2]; iv, 1 mg/kg) [h] | bioavailability [2] [%] | AUC ([2]; po, 10 mg/kg) [µg·h/mL] | Cmax ([2]; po, 10 mg/kg) [µg/mL] | half-life ([2]; po, 10 mg/kg) [h] | IC50 [3] [nM] | IC50 [4] [nM]
Cc1cc(C#N)ccc1Nc1ncc2c(n1)n(C1CCOCC1)c(=O)n2C [Compound 5, 3-Methyl-4-((7-methyl-8-oxo-9-(tetrahydro-2H-pyran-4-yl)-8,9-dihydro-7H-purin-2-yl)amino)benzonitrile] | > 120 | 0.234 | 0.333 | 99.4 | 2.27 | 0.835 | 3.21 | 1720 | 
[2H]C([2H])([2H])Oc1cc(C)c(Nc2ncc3c(n2)n(C2CCOCC2)c(=O)n3C)cn1 [Compound 38, 2-((6-(methoxy-d3)-4-methylpyridin-3-yl)amino)-7-methyl-9-(tetrahydro-2H-pyran-4-yl)-7,9-dihydro-8H-purin-8-one] | > 120 | 0.269 | 0.341 | 47.7 | 1.31 | 2.2 | 1.02 |  | 0.47
Cc1sc(C(N)=O)cc1Nc1ncc2c(n1)n(C1CCOCC1)c(=O)n2C [Compound 42, 5-Methyl-4-((7-methyl-8-oxo-9-(tetrahydro-2H-pyran-4-yl)-8,9-dihydro-7H-purin-2-yl)amino)thiophene-2-carboxamide] | > 120 | 0.23 | 1.41 | 70 | 1.5 | 0.858 | 1.73 |  | 2.05

Other lines, results leading:

half-life at 0.5 µM [1] [min] | AUC ([2]; iv, 1 mg/kg) [µg·h/mL] | half-life ([2]; iv, 1 mg/kg) [h] | bioavailability [2] [%] | AUC ([2]; po, 10 mg/kg) [µg·h/mL] | Cmax ([2]; po, 10 mg/kg) [µg/mL] | half-life ([2]; po, 10 mg/kg) [h] | IC50 [3] [nM] | IC50 [4] [nM] | SMILES
> 120 | 0.265 | 0.87 | 38.2 | 1.04 | 0.449 | 1.84 | 275 |  | Cc1cc(C(N)=O)ccc1Nc1ncc2c(n1)n(C1CCOCC1)c(=O)n2C [Compound 2, 3-Methyl-4-((7-methyl-8-oxo-9-(tetrahydro-2H-pyran-4-yl)-8,9-dihydro-7H-purin-2-yl)amino)benzamide]
> 120 | 0.639 | 1.52 | 110 | 7.1 | 2.73 | 2.99 |  | 7.6 | Cn1c(=O)n(C2CCOCC2)c2nc(Nc3ccc(C(N)=O)cc3Cl)ncc21 [Compound 26, 3-Chloro-4-((7-methyl-8-oxo-9-(tetrahydro-2H-pyran-4-yl)-8,9-dihydro-7H-purin-2-yl)amino)benzamide]
> 120 | 0.609 | 0.46 | 42.1 | 2.56 | 1.82 | 1.22 |  | 3.9 | CCNC(=O)c1ccc(Nc2ncc3c(n2)n(C2CCOCC2)c(=O)n3C)c(C)c1 [Compound 29, N-ethyl-3-methyl-4-((7-methyl-8-oxo-9-(tetrahydro-2H-pyran-4-yl)-8,9-dihydro-7H-purin-2-yl)amino)benzamide]
